The results in this text go back to ChEMBL document CHEMBL1201862, “PubChem BioAssay data set” (2004).

Among the test systems are UO-31; OVCAR-3; CAKI-1; K562; A498; HT-29; SK-MEL-28; NCI-H522; HCT-15; TK-10; HCC 2998; NCI/ADR-RES; OVCAR-5; OVCAR-8; EKVX; OVCAR-4; SF-268; SN12C; NCI-H226; LOX IMVI.
Assay in all cases: growth of human tumour cells (NCI), 48 h

Structures are written as SMILES.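 Where inhibition never reached the appropriate level, the endpoint shown equals the highest concentration tested. Otherwise, values were interpolated linearly from a five-concentration, 48-hour dose response in 96-well plates. At the GI50, growth is halved.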 Calls of active or inactive are those of the source. Cut-off read from the data, not from the text of the source: active = GI50 up to about 1.1 µM and inactive = higher.

Consider `CCOP(=O)(OCC)/C(C#N)=C/c1cn(C)cn1`, for which the GI50 in the assay with UO-31, in the assay with OVCAR-3, in the assay on CAKI-1, in the assay with K562, in the assay on A498 and in the assay on HT-29 was > 100 µM (inactive) in each case. Further, the GI50 with SK-MEL-28 is > 100 µM (inactive); with NCI-H522 it was > 100 µM (inactive); in the assay with HCT-15, greater than 100 µM; in the assay with TK-10 it was > 100 µM (inactive); in the assay with HCC 2998 it was > 100 µM (inactive); in the assay with NCI/ADR-RES, > 100 µM (inactive). Further, the GI50 in the assay with OVCAR-5, in the assay on OVCAR-8, in the assay on EKVX, in the assay on OVCAR-4, with SF-268 and in the assay on SN12C was > 100 µM (inactive) each time. Moreover, in the assay on NCI-H226, the GI50 is > 100 µM (inactive).
Regarding `Cn1c(-c2ccccc2)c2cc3nc4ccccc4nc3cc2c1-c1ccccc1`, the GI50 in the assay with UO-31 was 22.5 µM (inactive); in the assay on OVCAR-3, 20.4 µM (inactive); in the assay on CAKI-1 it was 43.3 µM (inactive); in the assay with K562 it was 17.3 µM (inactive); in the assay with A498 it was 19.6 µM (inactive); with HT-29, 17.8 µM (inactive). Also, the GI50 with SK-MEL-28 was 34.9 µM (inactive); in the assay with NCI-H522, 15.2 µM (inactive); in the assay with HCT-15, 4.65 µM; with TK-10, 41 µM (inactive); in the assay on LOX IMVI, 14 µM (inactive); with NCI/ADR-RES, 23.2 µM (inactive). The GI50 in the assay on OVCAR-5 was 52.2 µM (inactive); with OVCAR-8 it was 22.1 µM (inactive); with EKVX, 31 µM (inactive); in the assay with OVCAR-4, 30 µM (inactive); in the assay on SF-268, 19 µM (inactive); in the assay with SN12C, 13.3 µM (inactive).
On to `Cc1[nH]c(=O)nc(S)c1C(=O)Nc1cccc2cc3ccccc3cc12`, for which the GI50 in the assay with UO-31, with OVCAR-3, with CAKI-1, in the assay with K562, in the assay on A498 and in the assay on HT-29 was > 100 µM (inactive) each time. The GI50 was > 100 µM (inactive) in the assay with SK-MEL-28; greater than 100 µM with HCT-15; > 100 µM (inactive) in the assay on TK-10; > 100 µM (inactive) in the assay on HCC 2998; > 100 µM (inactive) with LOX IMVI; > 100 µM (inactive) in the assay with NCI/ADR-RES. Further, the GI50 in the assay with OVCAR-5, in the assay with OVCAR-8, in the assay with EKVX, in the assay with OVCAR-4, with SF-268 and in the assay with SN12C was > 100 µM (inactive) in each case. Further, the GI50 in the assay on NCI-H226 was > 100 µM (inactive).
`Nc1nc2c(c(-c3ccc(F)cc3)n1)COC/C2=C\c1ccc(F)cc1`: the GI50 in the assay on UO-31 was 14.7 µM (inactive); in the assay on OVCAR-3, 51.4 µM (inactive); in the assay on CAKI-1 it was > 100 µM (inactive); in the assay with K562 it was 35.6 µM (inactive); in the assay on A498, > 100 µM (inactive); in the assay with HT-29 it was 15.8 µM (inactive). The GI50 was > 100 µM (inactive) with SK-MEL-28; 10.8 µM (inactive) in the assay on NCI-H522; greater than 100 µM in the assay on HCT-15; 30.1 µM (inactive) in the assay with TK-10; 30.8 µM (inactive) in the assay on HCC 2998; 65.8 µM (inactive) with NCI/ADR-RES. Besides, the GI50 is > 100 µM (inactive) with OVCAR-5; 58.2 µM (inactive) in the assay on OVCAR-8; 18.6 µM (inactive) in the assay on EKVX; > 100 µM (inactive) with OVCAR-4; 14.5 µM (inactive) in the assay on SF-268; > 100 µM (inactive) in the assay with SN12C. Moreover, the GI50 in the assay on NCI-H226 was 27.5 µM (inactive).
For `COc1cc(C2S/C(=C/c3ccccc3)C(=O)N2c2ccc(NC(C)=O)cc2)cc(OC)c1OC` (stereo not given), the GI50 with UO-31 is 24 µM (inactive); in the assay with CAKI-1, 18.8 µM (inactive); in the assay with K562 it was 16 µM (inactive); in the assay on A498, 21.4 µM (inactive); in the assay with HT-29 it was 13.2 µM (inactive); with SK-MEL-28, 30.8 µM (inactive). For the same compound, the GI50 is 10.1 µM (inactive) in the assay with NCI-H522; 15 µM in the assay with HCT-15; 37.2 µM (inactive) in the assay with TK-10; 19.7 µM (inactive) in the assay on HCC 2998; 18.2 µM (inactive) in the assay on LOX IMVI; 23.4 µM (inactive) in the assay on NCI/ADR-RES. The GI50 in the assay with OVCAR-5 was 28 µM (inactive); in the assay on OVCAR-8, 18.5 µM (inactive); in the assay with EKVX, 9.71 µM (inactive); in the assay with OVCAR-4, 19.3 µM (inactive); in the assay with SF-268, 17.9 µM (inactive); in the assay on SN12C, 15.8 µM (inactive).
Take `CC1(O)C2(c3ccccc3)CCC[N+]1(C)CC2` (stereo not given): the GI50 in the assay with UO-31, with OVCAR-3, in the assay on CAKI-1, in the assay on K562, with A498 and in the assay on HT-29 was > 100 µM (inactive) in each case. Further, the GI50 in the assay with SK-MEL-28 was > 100 µM (inactive); in the assay on HCT-15 it was greater than 100 µM; with TK-10, > 100 µM (inactive); in the assay on HCC 2998 it was > 100 µM (inactive); with LOX IMVI, > 100 µM (inactive); with NCI/ADR-RES it was > 100 µM (inactive). In addition, the GI50 in the assay on OVCAR-5, with OVCAR-8, with OVCAR-4, with SN12C and in the assay on NCI-H226 was > 100 µM (inactive) throughout.
As for `O=C1OC(C(O)CO)C(O)=C1O` (stereo not given), the GI50 was > 100 µM (inactive) in the assay on UO-31; > 100 µM (inactive) in the assay with OVCAR-3; > 100 µM (inactive) in the assay on CAKI-1; 65.8 µM (inactive) in the assay on K562; > 100 µM (inactive) with HT-29; > 100 µM (inactive) in the assay with SK-MEL-28. Moreover, the GI50 is > 100 µM (inactive) with NCI-H522; greater than 100 µM with HCT-15; > 100 µM (inactive) in the assay with TK-10; > 100 µM (inactive) in the assay with HCC 2998; > 100 µM (inactive) with LOX IMVI; > 100 µM (inactive) in the assay with NCI/ADR-RES. Besides, the GI50 in the assay on OVCAR-5, in the assay on OVCAR-8, in the assay with EKVX, in the assay with OVCAR-4, with SF-268 and with SN12C was > 100 µM (inactive) each time. Further, the GI50 in the assay on NCI-H226 was > 100 µM (inactive).
Take `CC1(CO)COC(C)(C)OC1`: the GI50 in the assay on UO-31, in the assay on OVCAR-3, in the assay on A498, in the assay on HT-29, in the assay on SK-MEL-28 and in the assay with NCI-H522 was > 100 µM (inactive) in each case. Besides, the GI50 in the assay with HCT-15 was greater than 100 µM; with TK-10, > 100 µM (inactive); with HCC 2998, > 100 µM (inactive); in the assay on LOX IMVI it was > 100 µM (inactive); in the assay with NCI/ADR-RES, > 100 µM (inactive); in the assay with OVCAR-8, > 100 µM (inactive). Besides, the GI50 with OVCAR-4, with SF-268, with SN12C and with NCI-H226 was > 100 µM (inactive) in each case.
